In one data set the test system is Mycobacterium smegmatis. The data set can be described thus: Biofilm disruption, crystal violet assay. It is filed as cell-based. More on the design: MIC: unit not given beside the values. The procedure: In these experiments, the antimicrobial potential of the system was evaluated in Mycobacterium smegmatis used as a model of M. tuberculosis as they have homologous genes. The biofilm formation potential of Mycobacterium smegmatis was evaluated by scanning electron microscopy and the formation thereof was quantified with crystal violet, using 96-well plates made of polyvinyl chloride.
A crystal violet-based spectrophotometric study was used. To that end, M. smegmatis was inoculated in liquid culture (5 mL of 7H9 medium supplemented with OACC) and left to grow to exponential phase. The culture was diluted 1:100 and 100 µL were pipetted into each well. The controls were the rifabutin-free formulations and the blank was the bacterial culture-free medium. After incubating for two days at 37°C and once the biofilm was formed, the plates were washed with distilled water to remove planktonic cells and 200 µL of each formulation were added in serial dilutions (in the same manner as above). After 24 h, the plate was washed with water again to remove possible planktonic cells, and the biofilm was stained with 125 µL of 0.1% crystal violet solution and incubated for 10 min at room temperature. It was the washed with water and stirred vigorously. Finally, remaining crystal violet was solubilized by adding 200 µL of 95% ethanol and incubating for 15 min at room temperature. The solution was then transferred to a 96-well, flat-bottom plate, and biofilm formation was measured at 570 nm.

The subject of another data set is Mycobacterium species. The conditions noted are these: cited from earlier work.
The test system of the next data set is M. phlei, M. smegmatis. The data set can be described thus: Resazurin-based microdilution growth inhibition assay. The format is cell-based. The settings on record: for IC50 / IC90: strain and unit inferred. The procedure:
The antibacterial activity of the microparticles of the invention with rifabutin (and of the nanosystems) was evaluated in the strain that grows rapidly, M. phlei, and in the strain that grows slowly, M. smegmatis, using a resazurin-based microdilution assay according to the EUCAST guidelines and CSLI guidelines with slight modifications. This is a quick and objective method, and the minimum inhibitory concentration (MIC) is easily detectable because resazurin (blue) turns into resorufin (pink fluorescence) in the presence of viable bacteria. The microparticles of the invention with rifabutin were diluted in a cation-adjusted 2X Mueller-Hinton broth (CaMHB) until reaching a final antibiotic concentration of 32 mg/L. Since the range of susceptibility of Mycobacterium species to rifabutin is ≤0.25-16 mg/L, the highest tested antibiotic concentration was 16 mg/L. A bacterial suspension (in CaMHB) was diluted to a final concentration of 5 × 10^5 CFU/mL. For efficacy determination, the following controls were used: (i) growth control (without treatment), (ii) sterility control (CaMHB), (iii) positive control for inhibitory effect (free rifabutin in solution), and as well as (iv) the microparticles of the invention (without rifabutin), so as to take into account the possible effects of the microparticles of the invention on bacterial growth. […] Fluorescence intensity was measured at 560 and 590 nm of excitation and monitored using the FLUOR®star Omega multimode lector (Biotron Healthcare, India) and the MARS data analysis software, after an incubation period of 30 min at 37°C. The lowest concentration at which color change was observed was considered the minimum inhibitory concentration (MIC) value. Furthermore, IC50 was calculated using an online tool: "Quest Graph™ IC50 Calculator". AAT Bioquest, Inc.
For orientation: Alamar Blue is a resazurin reagent that responds to reducing activity.

For the next data set, the system named is RAW 264.7 cells. The data set can be described thus: MTT cytotoxicity assay. It is filed as cell-based. The settings on record: 12.5 µg/mL rifabutin. The procedure: To ensure that the microparticles of the invention can be safely used for pharmaceutical uses, MTT was used to investigate their cytotoxicity in Raw264.7 cells. In that sense, the in vitro toxicity of the microparticles of the invention, prepared according to Example 4, was evaluated by means of an MTT colorimetric assay, quantifying the water-insoluble formazan in RAW 264.7 cells after 24 hours of incubation of different particle concentrations. Cells were seeded (10,000 cells/well) 24 h before the experiment in a 96-well plate in a DMEM culture medium (10% FBS and 1% penicillin/streptomycin) at […] 37°C and 5% CO2. The medium was then replaced with the formulations and the cells were incubated for 24 hours. Fresh medium was used as negative control and Triton x100 (1% v/v) was used as positive control. After 24 h, 0.5 mg/mL of MTT dissolved in PBS were added, and the cells were incubated for 4 h at 37°C in darkness. Formazan crystals were dissolved by means of adding HCl 0.04 N in isopropanol and absorbance was measured at 570 nm using a microplate reader (Synergy H1 Hybrid Multi-Mode, BioTek, Winooski, VT, USA). Cell viability (%) was calculated following the equation: Cell viability (%) = (Sample absorbance−Negative control absorbance)/(Positive control absorbance−Negative control absorbance) × 100 [formula]

The conditions of data set [1]: cited from earlier work.
[2] abbreviates: Mycolicibacterium smegmatis, Biofilm culture, unit inferred.

As usually defined, the IC50 is the concentration needed to halve the response being measured. For orientation: IC90 means the point of the concentration-response curve where the effect stands at 90%. A word on the viability: it is a per cent measure of how many cells are alive, often set against a control.

Values after ≈ are worked out from the molar mass of the structure shown. Some results are limits rather than exact numbers.

As for `CO[C@H]1/C=C/O[C@@]2(C)Oc3c(C)c(O)c4c(c3C2=O)C2=NC3(CCN(CC(C)C)CC3)NC2=C(NC(=O)/C(C)=C\C=C\[C@H](C)[C@H](O)[C@@H](C)[C@@H](O)[C@@H](C)[C@H](OC(C)=O)[C@@H]1C)C4=O` [Rifabutin], the “difference between culture with rifabutin in suspension and without treatment” value in the data set on Mycobacterium smegmatis (2 mg/mL) was “hardly any differences”. In addition, the MIC in the data set on Mycobacterium smegmatis (Biofilm culture, unit not given) was 4; against M. phlei, M. smegmatis (2-day preinoculum, strain and unit not given), 4; in the data set on M. phlei, M. smegmatis (4-day preinoculum, strain and unit not given), 4; in the data set with M. phlei, M. smegmatis (Preinoculum culture t=0, strain and unit not printed in table (method: mg/L)), 1. Besides, the half-maximal inhibitory concentration (IC50) with Mycobacterium smegmatis (setting [2]) was 4.67 µg/mL (≈ 5.51 µM); with M. phlei, M. smegmatis (48 h, 2-day preinoculum), 2.24 µg/mL (≈ 2.64 µM); in the data set with M. phlei, M. smegmatis (96 h, 4-day preinoculum) it was 2.04 µg/mL (≈ 2.41 µM); with M. phlei, M. smegmatis (Preinoculum culture t=0), 0.34 µg/mL (≈ 0.401 µM). In addition, the IC90 in the data set with Mycobacterium smegmatis (setting [2]) came out at 42 µg/mL (≈ 49.6 µM); with M. phlei, M. smegmatis (48 h, 2-day preinoculum) it was 20.2 µg/mL (≈ 23.8 µM); in the data set on M. phlei, M. smegmatis (96 h, 4-day preinoculum) it was 18.4 µg/mL (≈ 21.7 µM); with M. phlei, M. smegmatis (Preinoculum culture t=0), 3.06 µg/mL (≈ 3.61 µM). Also, the “range of susceptibility of Mycobacterium species to rifabutin” value in the data set with Mycobacterium species was 0.25 to 16 mg/L. Further, in the data set with RAW 264.7 cells, the viability is reported as over 50%. Moreover, the “oral bioavailability (reaches systemic circulation)” value in data set [1] is listed as “less than 20%”.

The values above are taken from patent EP4740940A1, “POLLEN PARTICLES AS CARRIERS FOR PULMONARY DELIVERY” (Universidade de Santiago de Compostela, priority 2023, dated 2025).
